From paper PMC9516332 (Frontiers in Oncology, 2022)

How the values were obtained:
Assay in all cases: Kinase panel profiling at 1 µmol/L (MSA or IMAP), percentage inhibition
Format in all cases: biochemical
[1] = biological target: panel of 255 wild-type kinases (Homo sapiens, UniProt Q9NQU5); settings: PAK6; 1 µmol/L single concentration; read-out: %-inhibition, PAK6
[2] = biological target: panel of 255 wild-type kinases (Homo sapiens, UniProt O95819); settings: kinase HGK; 1 µmol/L single concentration; read-out: %-inhibition at 1 µmol/L, HGK
[3] = biological target: T1, panel of 255 wild-type kinases (Homo sapiens, UniProt Q92630); settings: kinase DYRK2; 1 µmol/L single concentration; read-out: %-inhibition at 1 µmol/L, DYRK2
T1 sequence (Q92630 1-601): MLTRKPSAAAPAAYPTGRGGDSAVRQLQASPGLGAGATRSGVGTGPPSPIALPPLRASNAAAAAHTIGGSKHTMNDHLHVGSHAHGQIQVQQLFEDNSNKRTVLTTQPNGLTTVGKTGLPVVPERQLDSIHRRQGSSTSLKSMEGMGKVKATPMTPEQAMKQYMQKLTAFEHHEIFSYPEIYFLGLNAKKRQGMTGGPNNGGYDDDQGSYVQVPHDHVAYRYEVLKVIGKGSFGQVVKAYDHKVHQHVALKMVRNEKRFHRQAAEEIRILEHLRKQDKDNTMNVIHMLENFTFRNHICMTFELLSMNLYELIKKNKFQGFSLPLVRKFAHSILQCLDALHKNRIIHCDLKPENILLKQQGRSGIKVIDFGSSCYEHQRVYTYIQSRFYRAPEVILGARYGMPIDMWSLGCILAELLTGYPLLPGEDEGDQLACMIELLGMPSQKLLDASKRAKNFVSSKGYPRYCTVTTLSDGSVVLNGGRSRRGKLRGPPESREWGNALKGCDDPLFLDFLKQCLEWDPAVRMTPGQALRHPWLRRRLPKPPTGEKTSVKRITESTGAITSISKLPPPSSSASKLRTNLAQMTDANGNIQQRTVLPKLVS

[4] = biological target: T2, panel of 255 wild-type kinases (Homo sapiens, UniProt P41743); settings: kinase PKCι; 1 µmol/L single concentration; read-out: %-inhibition at 1 µmol/L, PKCι
T2 sequence (P41743 1-596): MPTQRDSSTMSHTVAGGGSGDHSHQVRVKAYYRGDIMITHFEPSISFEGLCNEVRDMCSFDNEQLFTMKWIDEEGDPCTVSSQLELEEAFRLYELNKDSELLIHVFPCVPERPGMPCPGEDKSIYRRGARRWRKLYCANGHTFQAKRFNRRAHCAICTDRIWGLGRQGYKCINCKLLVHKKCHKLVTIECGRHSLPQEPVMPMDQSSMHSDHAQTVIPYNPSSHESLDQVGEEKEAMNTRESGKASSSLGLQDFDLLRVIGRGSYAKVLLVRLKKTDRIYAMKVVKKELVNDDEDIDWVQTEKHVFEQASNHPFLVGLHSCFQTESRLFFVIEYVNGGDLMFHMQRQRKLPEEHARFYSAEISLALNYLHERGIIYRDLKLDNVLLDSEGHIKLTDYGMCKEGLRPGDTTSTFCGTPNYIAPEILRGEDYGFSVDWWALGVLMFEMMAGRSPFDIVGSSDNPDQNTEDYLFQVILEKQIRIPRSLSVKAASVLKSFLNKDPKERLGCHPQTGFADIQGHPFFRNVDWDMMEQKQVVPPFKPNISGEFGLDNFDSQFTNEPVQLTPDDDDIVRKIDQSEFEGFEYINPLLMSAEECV

[5] = biological target: panel of 255 wild-type kinases (Homo sapiens, UniProt Q13882); settings: BRK kinase assay; 1 µmol/L single concentration; read-out: %-inhibition BRK
[6] = biological target: panel of 255 wild-type kinases (Homo sapiens, UniProt P49841); settings: kinase GSK3β; 1 µmol/L single concentration
[7] = biological target: panel of 255 wild-type kinases (Homo sapiens, UniProt P12931); settings: kinase SRC; 1 µmol/L single concentration; read-out: %-inhibition at 1 µmol/L, SRC
[8] = biological target: panel of 255 wild-type kinases (Homo sapiens, UniProt Q07912); settings: ACK kinase assay; 1 µmol/L single concentration; read-out: %-inhibition ACK
[9] = biological target: panel of 255 wild-type kinases (Homo sapiens, UniProt P29317); settings: kinase EPHA2; 1 µmol/L single concentration; read-out: %-inhibition at 1 µmol/L, EPHA2
[10] = biological target: panel of 255 wild-type kinases (Homo sapiens, UniProt P78368); settings: kinase CK1γ2; 1 µmol/L single concentration; read-out: %-inhibition at 1 µmol/L, CK1γ2
[11] = biological target: T3, panel of 255 wild-type kinases (Homo sapiens, UniProt Q16832); settings: kinase DDR2; 1 µmol/L single concentration; read-out: %-inhibition at 1 µmol/L, DDR2
T3 sequence (Q16832 22-855): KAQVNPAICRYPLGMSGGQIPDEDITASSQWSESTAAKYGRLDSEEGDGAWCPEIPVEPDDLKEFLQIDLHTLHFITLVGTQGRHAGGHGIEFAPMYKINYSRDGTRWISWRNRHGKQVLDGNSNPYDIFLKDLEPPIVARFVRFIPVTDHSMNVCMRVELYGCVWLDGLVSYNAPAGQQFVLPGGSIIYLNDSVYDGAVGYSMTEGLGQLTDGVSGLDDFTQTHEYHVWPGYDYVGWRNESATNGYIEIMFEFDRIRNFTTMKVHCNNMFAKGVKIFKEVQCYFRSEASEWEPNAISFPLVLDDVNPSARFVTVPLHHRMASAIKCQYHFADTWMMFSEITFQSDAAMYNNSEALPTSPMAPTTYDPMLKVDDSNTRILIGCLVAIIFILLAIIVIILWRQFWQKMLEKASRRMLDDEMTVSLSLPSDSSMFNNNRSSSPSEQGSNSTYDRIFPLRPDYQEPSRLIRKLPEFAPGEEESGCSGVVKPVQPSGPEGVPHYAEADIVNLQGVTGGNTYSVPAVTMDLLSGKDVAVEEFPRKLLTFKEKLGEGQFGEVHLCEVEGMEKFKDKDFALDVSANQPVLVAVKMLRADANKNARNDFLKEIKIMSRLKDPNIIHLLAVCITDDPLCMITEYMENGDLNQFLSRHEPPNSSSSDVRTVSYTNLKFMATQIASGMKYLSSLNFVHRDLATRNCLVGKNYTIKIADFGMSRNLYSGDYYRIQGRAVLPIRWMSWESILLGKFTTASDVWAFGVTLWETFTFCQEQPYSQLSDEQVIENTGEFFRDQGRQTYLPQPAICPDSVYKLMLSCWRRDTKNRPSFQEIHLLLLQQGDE

inhibition at 1 µM [1] [%] | inhibition at 1 µM [2] [%] | inhibition at 1 µM [3] [%] | inhibition at 1 µM [4] [%] | inhibition at 1 µM [5] [%] | inhibition at 1 µM [6] [%] | inhibition at 1 µM [7] [%] | inhibition at 1 µM [8] [%] | inhibition at 1 µM [9] [%] | inhibition at 1 µM [10] [%] | inhibition at 1 µM [11] [%] | SMILES
14 | 7 | 66 | -0.803 | 19 | 40 | 48 | 4.48 | 49 | -2.46 | 73 | COc1ccc(CN2C3CC2CN(c2ccc(-c4cc(OCC(C)(C)O)cn5ncc(C#N)c45)cn2)C3)cn1 [selpercatinib]
10 | 2.66 | 7 | 21 | 2.75 | -4 | 3.29 | 5.5 | -6 | -1.58 | 5.45 | Cc1nc(NC(=O)N2CCC[C@H]2C(N)=O)sc1-c1ccnc(C(C)(C)C(F)(F)F)c1 [alpelisib]
6.34 | 3.65 | 8.45 | -2.24 | 8 | 8 | -2 | 9 | 2 | -4 | 10 | Cc1cc(Nc2ncnc3ccc(NC4=NC(C)(C)CO4)cc23)ccc1Oc1ccn2ncnc2c1 [tucatinib]
12 | 1.58 | -2.7 | -6.5 | 6 | -8 | -2.83 | 0.731 | -1.4 | -1.66 | -0.119 | Cn1cnc2c(F)c(Nc3ccc(Br)cc3Cl)c(C(=O)NOCCO)cc21 [selumetinib]
6.65 | 39 | 38 | 31 | 53 | 11 | 44 | 32 | 14 | -1.63 | 93 | COc1cc2ncnc(Nc3ccc(F)c(Cl)c3)c2cc1NC(=O)/C=C/CN1CCCCC1 [dacomitinib]
42 | 3 | -0.768 | -7.5 | 49 | 51 | 94 | 84 | 62 | -13 | 102 | CO[C@]1(C(=O)N[C@@H](C)c2ccc(-n3cc(F)cn3)nc2)CC[C@H](c2nc(C)cc(Nc3cc(C)[nH]n3)n2)CC1 [pralsetinib]

SMILES | inhibition at 1 µM [1] [%] | inhibition at 1 µM [2] [%] | inhibition at 1 µM [3] [%] | inhibition at 1 µM [4] [%] | inhibition at 1 µM [5] [%] | inhibition at 1 µM [6] [%] | inhibition at 1 µM [7] [%] | inhibition at 1 µM [8] [%] | inhibition at 1 µM [9] [%] | inhibition at 1 µM [10] [%] | inhibition at 1 µM [11] [%]
CCN1C(=O)N(c2c(F)c(OC)cc(OC)c2F)Cc2cnc3[nH]c(CN4CCOCC4)cc3c21 [pemigatinib] | 12 | 4.64 | 12 | -4 | 11 | -7 | 2.67 | 4.32 | -3.69 | -9 | 5
Cn1cc(-c2cc3c(N4CCN(c5ncc([C@@](C)(N)c6ccc(F)cc6)cn5)CC4)ncnn3c2)cn1 [avapritinib] | 9 | 37 | 56 | 0.376 | 0.682 | -5.32 | 66 | 73 | 60 | 7 | 98
